The text below walks through data of US8273890B2 (4SC AG, priority 2007, dated 2012).

For this assay, the target named is T1, recombinant Plk1 protein (Homo sapiens, UniProt P53350).
T1 construct: histidine tag (N); made in house; host or cells: SF9 insect cells
T1 sequence (P53350 whole entry): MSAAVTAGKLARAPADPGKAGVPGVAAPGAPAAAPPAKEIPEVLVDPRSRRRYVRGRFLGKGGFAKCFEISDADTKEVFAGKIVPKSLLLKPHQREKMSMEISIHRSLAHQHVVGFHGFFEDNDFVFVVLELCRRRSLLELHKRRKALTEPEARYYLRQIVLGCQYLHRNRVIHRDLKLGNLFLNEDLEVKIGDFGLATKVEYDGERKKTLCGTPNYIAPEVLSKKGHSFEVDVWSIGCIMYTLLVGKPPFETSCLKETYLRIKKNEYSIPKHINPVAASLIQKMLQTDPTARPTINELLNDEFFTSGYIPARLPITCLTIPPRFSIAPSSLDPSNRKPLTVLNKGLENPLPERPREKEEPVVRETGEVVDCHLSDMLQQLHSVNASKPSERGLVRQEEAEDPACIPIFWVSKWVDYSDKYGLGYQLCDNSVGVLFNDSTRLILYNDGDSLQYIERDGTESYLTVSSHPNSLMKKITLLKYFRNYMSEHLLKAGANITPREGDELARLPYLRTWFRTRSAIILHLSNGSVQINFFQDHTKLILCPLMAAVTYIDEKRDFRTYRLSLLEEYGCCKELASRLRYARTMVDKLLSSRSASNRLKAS
In words: Plk1 kinase activity inhibition assay (33P-ATP, alpha casein substrate, flash plates). The class given is biochemical. The settings on record: enzymatic assay, 100 nM Li-ATP, 80 minutes at 30° C. How it is done:
The inhibition of Plk1 kinase activity can be measured using recombinant Plk1 protein expressed as an N-terminally histidine-tagged protein in SF9 insect cells and alpha casein as substrate. The Plk1 assay is run in 96 well plates by incubating 50 to 100 ng per well recombinant Plk1, 500 ng per well alpha casein (Sigma, # C-6780) as substrate, 10 μl of compound of invention (test compounds were dissolved as 20 mM solutions in dimethylsulfoxide (DMSO) and subsequently diluted), and 100 nM Li-ATP (including ^33P-ATP) in 100 μl of reaction buffer ([…] HEPES, pH 7.5; 3 mM MgCl2; 3 mM MnCl2; 3 μM Na-Orthovanadat; 1 mM DTT; 1 μg/ml PEG 8000) for 80 minutes at 30° C. The reactions are terminated by adding 100 μl stopping buffer (2% H3PO4 for 5 minutes) and are washed 3 times with washing solution (0.9% NaCl). Determining ^33P incorporated into the protein substrate alpha casein, the detection is based on the adhesion of the phosphorylated protein to the surface of scintillator-coated flash plates (Perkin Elmer, USA; #SMP-200). Phosphorylation of alpha casein is measured by counting the radioactivity bound to the plate for 60 sec. using a plate reader (Perkin Elmer, USA; Wallac Microbeta). By this method, the IC50 value of the Plk1 inhibition is determined as described above.
As for `NC(=O)c1sc(-n2cnc3cnccc32)cc1OCc1ccccc1F` [Example 40, 3-[(2-fluorobenzyl)oxy]-5-(1H-imidazo[4,5-c]pyridin-1-yl)thiophene-2-carboxamide], the half-inhibitory concentration (IC50) (in general, the midpoint of a concentration-inhibition curve) lay within 10 to 100 nM.

For the molecule `C[C@@H](Oc1cc(-n2cnc3cnc(CN4CCC(O)CC4)cc32)sc1C(N)=O)c1ccccc1C(F)(F)F` [Example 64, 5-{6-[(4-hydroxypiperidin-1-yl)methyl]-1H-imidazo[4,5-c]pyridin-1-yl}-3-{(1R)-1-[2-(trifluoromethyl)phenyl]ethoxy}thiophene-2-carboxamide], the IC50 is below 10 nM.

Consider `CC(Oc1cc(-n2cnc3cc(CO)ncc32)sc1C(N)=O)c1ccccc1Cl` (stereo not drawn) [Example 125, 3-[-1-(2-chlorophenyl)ethoxy]-5-[6-(hydroxymethyl)-3H-imidazo[4,5-c]pyridin-3-yl]thiophene-2-carboxamide], for which the half-maximal inhibitory concentration (IC50) was below 10 nM.

For the molecule `CCC(Oc1cc(-n2cnc3cnc(CN4CCN(CCO)CC4)cc32)sc1C(N)=O)c1ccccc1Cl` (stereo not drawn) [Example 138, 3-{[1-(2-chlorophenyl)propyl]oxy}-5-(6-{[4-(2-hydroxyethyl)piperazin-1-yl]methyl}-1H-imidazo[4,5-c]pyridin-1-yl)thiophene-2-carboxamide], the concentration for half-maximal inhibition (IC50) lay in the range of 10 to 100 nM.

Consider `CC(Oc1cc(-n2cnc3cnccc32)sc1C(N)=O)c1ccccc1C(F)(F)F` (stereo not drawn) [Example 14, 5-(1H-Imidazo[4,5-c]pyridin-1-yl)-3-{1-[2-(trifluoromethyl)phenyl]ethoxy}thiophene-2-carboxamide], for which the IC50 was in the range of 10 to 100 nM.

Take `C[C@@H](Oc1cc(-n2cnc3cnc(CN4CCN(CC(=O)N5CCOCC5)CC4)cc32)sc1C(N)=O)c1ccccc1C(F)(F)F` [Example 124, 5-(6-{[4-(2-morpholin-4-yl-2-oxoethyl)piperazin-1-yl]methyl}-1H-imidazo[4,5-c]pyridin-1-yl)-3-{(1R)-1-[2-(trifluoromethyl)phenyl]ethoxy}thiophene-2-carboxamide]: the half-maximal inhibitory concentration (IC50) lay within 10 to 100 nM.

As for `C[C@@H](Oc1cc(-n2cnc3cnc(CNC(C)(C)C)cc32)sc1C(N)=O)c1ccccc1C(F)(F)F` [Example 114, 5-{6-[(tert-butylamino)methyl]-1H-imidazo[4,5-c]pyridin-1-yl}-3-{(1R)-1-[2-(trifluoromethyl)phenyl]ethoxy}thiophene-2-carboxamide], the half-maximal inhibitory concentration (IC50) fell in the range of 10 to 100 nM.

As to `CCCNCc1cc2c(cn1)ncn2-c1cc(O[C@H](C)c2ccccc2C(F)(F)F)c(C(N)=O)s1` [Example 113], the IC50 was in the range of 10 to 100 nM.

In the case of `NC(=O)c1sc(-n2cnc3ccncc32)cc1OCc1ccccc1C(F)(F)F` [Example 3, 5-(3H-Imidazo[4,5-c]pyridin-3-yl)-3-{[2-(trifluoromethyl)benzyl]oxy}thio-phene-2-carboxamide], the IC50 was in the range of 100 to 1000 nM.

Take `C[C@@H](Oc1cc(-n2cnc3cnc(CN4CCN(C5CCCCC5)CC4)cc32)sc1C(N)=O)c1ccccc1C(F)(F)F` [Example 106, 5-{6-[(4-cyclohexylpiperazin-1-yl)methyl]-1H-imidazo[4,5-c]pyridin-1-yl}-3-{(1R)-1-[2-(trifluoromethyl)phenyl]ethoxy}thiophene-2-carboxamide]: the IC50 was in the range of 10 to 100 nM.

For `COc1ccc2c(ncn2-c2cc(OCc3ccccc3C(F)(F)F)c(C(N)=O)s2)n1` [Example 23, 5-(5-methoxy-1H-imidazo[4,5-b]pyridin-1-yl)-3-{[2-(trifluoromethyl)benzyl]oxy}thiophene-2-carboxamide], the IC50 was 10 to 100 nM.

For the molecule `CN(CCN1CCOCC1)C(=O)c1cc2c(cn1)ncn2-c1cc(OCc2ccccc2C(F)(F)F)c(C(N)=O)s1` [Example 11, 1-(5-Carbamoyl-4-{[2-(trifluoromethyl)benzyl]oxy}-2-thienyl)-N-methyl-N-(2-morpholin-4-ylethyl)-1H-imidazo[4,5-c]pyridine-6-carboxamide], the IC50 was in the range of 1000 to 10000 nM.

In the case of `C[C@@H](Oc1cc(-n2cnc3cnc(CN4CCN(CC(=O)N5CCCC5)CC4)cc32)sc1C(N)=O)c1ccccc1C(F)(F)F` [Example 145, 5-(6-{[4-(2-oxo-2-pyrrolidin-1-ylethyl)piperazin-1-yl]methyl}-1H-imidazo[4,5-c]pyridin-1-yl)-3-{(1R)-1-[2-(trifluoromethyl)phenyl]ethoxy}thiophene-2-carboxamide], the concentration for half-maximal inhibition (IC50) is 10 to 100 nM.

Take `NC(=O)c1sc(-n2cnc3cnc(CNC4CC4)cc32)cc1OCc1ccccc1C(F)(F)F` [Example 7, 5-{6-[(Cyclopropylamino)methyl]-1H-imidazo[4,5-c]pyridin-1-yl}-3-{[2-(trifluoromethyl)benzyl]oxy}thiophene-2-carboxamide]: the IC50 fell in the range of 10 to 100 nM.

In the case of `CNCc1cc2ncn(-c3cc(O[C@H](C)c4ccccc4C(F)(F)F)c(C(N)=O)s3)c2cn1` [Example 116, 5-{6-[(methylamino)methyl]3H-imidazo[4,5-c]pyridin-3-yl}-3-{(1R)-1-[2-(trifluoromethyl)phenyl]ethoxy}thiophene-2-carboxamide], the half-inhibitory concentration (IC50) was in the range of 10 to 100 nM.

In the case of `C[C@@H](Oc1cc(-n2cnc3cnc(CN4CCN(CCCO)CC4)cc32)sc1C(N)=O)c1ccccc1C(F)(F)F` [Example 108, 5-(6-{[4-(3-hydroxypropyl)piperazin-1-yl]methyl}-1H-imidazo[4,5-c]pyridin-1-yl)-3-{(1R)-1-[2-(trifluoromethyl)phenyl]ethoxy}thiophene-2-carboxamide], the IC50 is below 10 nM.

For the molecule `C=CCN1CCN(Cc2cc3c(cn2)ncn3-c2cc(O[C@H](C)c3ccccc3C(F)(F)F)c(C(N)=O)s2)CC1` [Example 122, 5-{6-[(4-allylpiperazin-1-yl)methyl]-1H-imidazo[4,5-c]pyridin-1-yl}-3-{(1R)-1-[2-(trifluoromethyl)phenyl]ethoxy}thiophene-2-carboxamide], the IC50 is below 10 nM.

`CC(Oc1cc(-n2cnc3cc(CN4CCOCC4)ncc32)sc1C(N)=O)c1ccccc1F` (stereo not drawn) [Example 158, 3-[-1-(2-fluorophenyl)ethoxy]-5-[6-(morpholin-4-ylmethyl)-3H-imidazo[4,5-c]pyridin-3-yl]thiophene-2-carboxamide]: the IC50 lay in the range of 1000 to 10000 nM.

Turning to `C[C@@H](Oc1cc(-n2cnc3cnc(CN4CCN(C(N)=O)CC4)cc32)sc1C(N)=O)c1ccccc1C(F)(F)F` [Example 67, 4-{[1-(5-carbamoyl-4-{(1R)-1-[2-(trifluoromethyl)phenyl]ethoxy}-2-thienyl)-1H-imidazo[4,5-c]pyridin-6-yl]methyl}piperazine-1-carboxamide], the IC50 was below 10 nM.

For the molecule `C[C@@H](Oc1cc(-n2cnc3cnc(CN4CCC(C(=O)N5CCN(C)CC5)CC4)cc32)sc1C(N)=O)c1ccccc1C(F)(F)F` [Example 91, 5-[6-({4-[(4-methylpiperazin-1-yl)carbonyl]piperidin-1-yl}methyl)-1H-imidazo[4,5-c]pyridin-1-yl]-3-{(1R)-1-[2-(trifluoromethyl)phenyl]ethoxy}thiophene-2-carboxamide], the IC50 is 10 to 100 nM.

For `CCc1ccccc1COc1cc(-n2cnc3cnc(CO)cc32)sc1C(N)=O` [Example 162, 3-[(2-ethylbenzyl)oxy]-5-[6-(hydroxymethyl)-1H-imidazo[4,5-c]pyridin-1-yl]thiophene-2-carboxamide], the concentration for half-maximal inhibition (IC50) fell in the range of 10 to 100 nM.

Consider `CCC(Oc1cc(-n2cnc3cnc(CN4CCN(C)CC4)cc32)sc1C(N)=O)c1ccccc1Cl` (stereo not drawn) [Example 102, 3-{[1-(2-chlorophenyl)propyl]oxy}-5-{6-[(4-methylpiperazin-1-yl)methyl]-1H-imidazo[4,5-c]pyridin-1-yl}thiophene-2-carboxamide], for which the IC50 lay within 10 to 100 nM.

Take `NC(=O)c1sc(-n2cnc3ccncc32)cc1OCc1c(Cl)cccc1Cl` [Example 43, 3-[(2,6-dichlorobenzyl)oxy]-5-(3H-imidazo[4,5-c]pyridin-3-yl)thiophene-2-carboxamide]: the IC50 is 10 to 100 nM.

Consider `C[C@@H](Oc1cc(-n2cnc3cnc(CN4CCN(CC(=O)N(C)C)CC4)cc32)sc1C(N)=O)c1ccccc1C(F)(F)F` [Example 87, 5-[6-({4-[2-(dimethylamino)-2-oxoethyl]piperazin-1-yl}methyl)-1H-imidazo[4,5-c]pyridin-1-yl]-3-{(1R)-1-[2-(trifluoromethyl)phenyl]ethoxy}thiophene-2-carboxamide], for which the IC50 was 10 to 100 nM.

For the molecule `C[C@@H](Oc1cc(-n2cnc3cnc(CO)cc32)sc1C(N)=O)c1ccccc1C(F)(F)F` [Example 25, 5-[6-(hydroxymethyl)-1H-imidazo[4,5-c]pyridin-1-yl]-3-{(1R)-1-[2-(trifluoromethyl)phenyl]ethoxy}thiophene-2-carboxamide], the IC50 is below 10 nM.

As to `C[C@@H](Oc1cc(-n2cnc3cnc(CO)cc32)sc1C(N)=O)c1ccccc1Cl` [Example 54, 3-[(1R)-1-(2-chlorophenyl)ethoxy]-5-[6-(hydroxymethyl)-1H-imidazo[4,5-c]pyridin-1-yl]thiophene-2-carboxamide], the concentration for half-maximal inhibition (IC50) was below 10 nM.

As to `C[C@@H](Oc1cc(-n2cnc3cnc(CN4CCN(CC(=O)N(C)c5ccccc5)CC4)cc32)sc1C(N)=O)c1ccccc1C(F)(F)F` [Example 86, 5-{6-[(4-{2-[methyl(phenyl)amino]-2-oxoethyl}piperazin-1-yl)methyl]-1H-imidazo[4,5-c]pyridin-1-yl}-3-{(1R)-1-[2-(trifluoromethyl)phenyl]ethoxy}thiophene-2-carboxamide], the IC50 fell in the range of 10 to 100 nM.
